In ChEMBL document CHEMBL4251629, “BODIPYs to the rescue: Potential applications in photodynamic inactivation” (2018):

Tests used:
[1] = tested on: Escherichia coli; experiment: Photodynamic antibacterial activity against ROS-induced stressed Escherichia coli ATCC 25922 assessed as log reduction in viable cells at 10 uM preincubated for 30 mins followed by 3.6 J/cm2 irradiation for 1 hr mins by fluorescence microscopy; assay type: functional
[2] = tested on: Staphylococcus aureus; experiment: Photodynamic antibacterial activity against Staphylococcus aureus ATCC 25923 assessed as log reduction in viable cells at 1 uM preincubated for 30 mins followed by immediate irradiation at 21 J/cm2 in presence of 50 mM KI by fluorescence microscopy; assay type: functional
[3] = tested on: Escherichia coli; experiment: Photodynamic antibacterial activity against Escherichia coli EC7 assessed as log reduction in viable cells at 5 uM preincubated for 30 mins followed by immediate irradiation at 63 J/cm2 in presence of 50 mM KI by fluorescence microscopy; assay type: functional
[4] = tested on: Candida albicans; experiment: Photodynamic antibacterial activity against Candida albicans PC31 assessed as log reduction in viable cells at 5 uM preincubated for 30 mins followed by immediate irradiation at 126 J/cm2 in presence of 50 mM KI by fluorescence microscopy; assay type: functional
[5] = tested on: Nakaseomyces glabratus; experiment: Photodynamic antifungal activity against Candida glabrata ATCC 15545 assessed as log reduction in viable cells at 1 uM in presence of 118 J/cm2 irradiation; assay type: functional
[6] = tested on: Pseudomonas aeruginosa; experiment: Photodynamic antibacterial activity against Pseudomonas aeruginosa PAO1 assessed as log reduction in viable cells at 2.5 uM preincubated for 30 mins followed by 171 J/cm'2 irradiation for 1 hr by confocal laser scanning microscopy; assay type: functional
[7] = tested on: Mycolicibacterium smegmatis; experiment: Photodynamic antibacterial activity against Mycobacterium smegmatis MC2 155 assessed as log reduction in viable cells at 0.5 uM in presence of 118 J/cm2 irradiation; assay type: functional, str. MC2 155
[8] = tested on: Candida albicans; experiment: Photodynamic antifungal activity against Candida albicans ATCC 90028 assessed as log reduction in viable cells at 1 uM in presence of 118 J/cm2 irradiation; assay type: functional
[9] = tested on: Cryptococcus neoformans; experiment: Photodynamic antifungal activity against Cryptococcus neoformans ATCC 6453 assessed as log reduction in viable cells at 0.5 uM in presence of 118 J/cm2 irradiation; assay type: functional
[10] = tested on: dengue virus type 1; experiment: Photodynamic antiviral activity against Dengue virus 1 infected in African green monkey Vero cells assessed as log reduction in viable cells at 0.1 uM in presence of 118 J/cm2 irradiation; assay type: functional
[11] = tested on: Human adenovirus 5; experiment: Photodynamic antiviral activity against Human adenovirus 5 infected in African green monkey Vero cells assessed as log reduction in viable cells at 5 uM in presence of 118 J/cm2 irradiation; assay type: functional
[12] = tested on: Vesicular stomatitis virus; experiment: Photodynamic antiviral activity against vesicular stomatitis virus NJ infected in African green monkey Vero cells assessed as log reduction in viable cells at 0.5 uM in presence of 118 J/cm2 irradiation; assay type: functional, Vesicular stomatitis New Jersey virus
[13] = tested on: Escherichia coli; experiment: Photodynamic antibacterial activity against ROS-induced stressed Escherichia coli ATCC 25922 assessed as log reduction in viable cells at 10 uM preincubated for 1 hr followed by 9.36 J/cm2 irradiation for 2 hrs mins by fluorescence microscopy; assay type: functional
[14] = tested on: Escherichia coli; experiment: Photodynamic antibacterial activity against Escherichia coli DH5alpha assessed as log reduction in viable cells 10 uM preincubated for 20 mins followed by 180 J/cm2 irradiation for 60 mins by fluorescence microscopy; assay type: functional, DH5[alpha]
[15] = tested on: Staphylococcus aureus; experiment: Photodynamic antibacterial activity against Staphylococcus aureus NRS11 assessed as log reduction in viable cells at 10 uM preincubated for 20 mins followed by 180 J/cm2 irradiation for 60 mins by fluorescence microscopy; assay type: functional
[16] = tested on: Klebsiella pneumoniae; experiment: Photodynamic antibacterial activity against Klebsiella pneumoniae subsp. pneumoniae ATCC 33495 assessed as log reduction in viable cells at 10 uM preincubated for 20 mins followed by 180 J/cm2 irradiation for 60 mins by fluorescence microscopy; assay type: functional
[17] = tested on: Bacillus thuringiensis; experiment: Photodynamic antibacterial activity against Bacillus thuringiensis NRS 1124 ATCC 19268 assessed as log reduction in viable cells at 10 uM preincubated for 20 mins followed by 180 J/cm2 irradiation for 60 mins by fluorescence microscopy; assay type: functional

## CC(=O)OCC1c2c(C)c(Br)c(C)n2[B-](F)(F)[N+]2=C(C)C(Br)=C(C)C12 (configuration not stated)
[1]
  log(activity): 5.5

## CC1=CC(C)=[N+]2C1C(c1ccc(OCCC[N+](C)(C)C)cc1)c1c(C)cc(C)n1[B-]2(F)F (configuration not stated)
[2]
  log(activity): 4.5
[3]
  log(activity): 6.5
[4]
  log(activity): 3.5

## CC1=C(I)C(C)=[N+]2C1C(c1cc[n+](C)cc1)c1c(C)c(I)c(C)n1[B-]2(F)F (configuration not stated)
[5]
  log(activity): 3
[6]
  log(activity): 7
[7]
  log(activity): 3
[8]
  log(activity): 5
[9]
  log(activity): 5
[10]
  log(activity): 6
[11]
  log(activity): 2
[12]
  log(activity): 5

## CC(=O)OCC1c2c(C)c(I)c(C)n2[B-](F)(F)[N+]2=C(C)C(I)=C(C)C12 (configuration not stated)
[1]
  log(activity): 5.5

## CC1=C(Br)C(C)=[N+]2C1C(CC1(C)CCc3c(C)c(O)c(C)c(C)c3O1)c1c(C)c(Br)c(C)n1[B-]2(F)F (configuration not stated)
[13]
  log(activity): 5.5

## CC1=C(C)C2(OO)OC(C)(CC3c4c(C)c(Br)c(C)n4[B-](F)(F)[N+]4=C(C)C(Br)=C(C)C34)CCC2=C(C)C1=O (configuration not stated)
[13]
  log(activity): 5.5

## CC1=C(I)C(C)=[N+]2C1C(c1cc(CN(Cc3ccccn3)Cc3ccccn3)cc(CN(Cc3ccccn3)Cc3ccccn3)c1)c1c(C)c(I)c(C)n1[B-]2(F)F (configuration not stated)
[14]
  log(activity): 3.5
[15]
  log(activity): 4.5
[16]
  log(activity): 2.2
[17]
  log(activity): 4.5

## CC1=CC(C)=[N+]2C1C(c1ccc([N+](C)(C)C)cc1)c1c(C)cc(C)n1[B-]2(F)F (configuration not stated)
[2]
  log(activity): 5
[3]
  log(activity): 3.5
[4]
  log(activity): 5.5
